# Experimental data published in patent US20070270350A1, “Methods and Compositions for the Prevention and Treatment of Inflammatory Diseases or Conditions” (MUSC FOUNDATION FOR RESEARCH DEVELOPMENT, priority 2003, published 2007).
# What was measured:
# iNOS = assay: LPS/IFN-induced NO production and iNOS gene expression in primary astrocytes; type: cell-based, rat; conditions: D-PDMP 0, 10, 25, 50 μM, 0.5 h pretreatment
# [1] = cited from earlier work
# [2] = target: T1, lactosylceramide synthase (GalT-2) (Rattus norvegicus, UniProt O88419); assay: Measurement of lactosylceramide synthesis in primary astrocytes; type: cell-based; conditions: D-PDMP pretreatment 0.5 hr; 14C-galactose labelling, HPTLC
# T1 construct: endogenous in cells; host or cells: primary astrocytes
# T1 sequence (O88419 1-382): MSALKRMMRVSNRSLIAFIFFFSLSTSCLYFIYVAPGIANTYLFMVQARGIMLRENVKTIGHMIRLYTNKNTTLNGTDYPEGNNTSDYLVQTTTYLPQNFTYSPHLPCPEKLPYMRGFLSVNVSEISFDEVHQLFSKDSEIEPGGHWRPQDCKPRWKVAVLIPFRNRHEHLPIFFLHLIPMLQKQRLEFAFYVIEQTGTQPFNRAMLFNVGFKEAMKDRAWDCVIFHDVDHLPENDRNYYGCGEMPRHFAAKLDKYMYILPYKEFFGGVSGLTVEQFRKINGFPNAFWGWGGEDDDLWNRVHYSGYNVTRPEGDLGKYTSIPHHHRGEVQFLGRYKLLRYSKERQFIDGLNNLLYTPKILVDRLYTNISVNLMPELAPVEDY
# Experimental: Measurement of lactosylceramide synthesis. Cultured cells were incubated in growth medium containing [^14C] galactose (5 ? Ci/ml) for 24 h as described previously. The medium was removed, and the cell monolayer was washed with sterile PBS to remove nonspecifically adsorbed radioactivity and fresh serum free medium was added. After the stimulation of cells with LPS/IFN ? (1 ? g/ml; 10 U/ml) for various durations cells were then harvested and washed with ice cold PBS and lysed by sonication. Following protein quantification, […] of protein was used for extraction of lipids using Chloroform:Methanol:HCl (100:100:1). The organic phase was dried under nitrogen. Glycosphingolipids were resolved by high performance thin layer chromatography using chloroform/methanol/0.25% KCl (70:30:4, v/v/v) as the developing solvent. The chromatographic plate was dried in air and stained with iodine vapors. The gel area corresponding to LacCer was scraped, and radioactivity was measured employing “liquiscint” (NEN Life Science Products) as a scintillating fluid.
# NF-κB = NF-κB reporter, gel shift and IκB phosphorylation after LPS/IFN; type: cell-based, rat
# Experimental: Western Blot Analysis. For iNOS protein, the cells were washed with cold Tris buffered saline (TBS; 20 mM Trizma base, and 137 mM NaCl, pH 7.5), lysed in 1×SDS sample loading buffer (62.5 mM Trizma base, 2% w/v SDS, 10% glycerol), following sonication and centrifugation at 1,5000×g for 5 min, the supernatant was used for the iNOS western immunoblot assay. The protein concentration of samples was determined with the detergent compatible protein assay reagent (Bio-Rad Laboratories, CA) using bovine serum albumin (BSA) as the standard. Sample was boiled for 3 min with 0.1 volumes of 10% O-mercaptoethanol and 0.5% bromophenol blue mix. Fifty μg of total cellular protein was resolved by electrophoresis in 8 or 12% polyacrylamide gels, electro-transferred to polyvinylidene difluoride (PVDF) filter and blocked with Tween 20 containing Tris-buffered saline [TBST; 10 mM Trizma base (pH 7.4), 1% Tween 20, and 150 mM NaCl] with 5% skim milk. After incubation with antiserum against iNOS (BD PharMingen, CA), or hRas (Upstate Biotechnology, CA), or phospho-specific MAPK (p42/44) (Signal Transduction), in PVDF buffer for 2 h at room temperature, the filters were washed 3 times with TBST buffer and then incubated with horseradish peroxidase conjugated anti-rabbit or mouse IgG for 1 h. The membranes were autoradiographed by using ECL-plus (Amersham Pharmacia Biotech) after washing with TBST buffer.
# Nuclear Extraction and Electrophoretic mobility shift assay. Nuclear extracts from cells (1×10^7 cells) were prepared using previously published method (Dignam et al., 1983) with slight modification. Cells were harvested, washed twice with ice-cold TBS, and lysed in 400 μl of buffer A containing, 10 mM KCl, 2 mM MgCl2, 0.5 mM dithiothreitol, protease inhibitor cocktail (Sigma), and 0.1% Nonidet P40 in 10 mM HEPES, pH 7.9 for 10 min on ice. Following centrifugation at 5,000×g for 10 min, the pelleted nuclei were washed with buffer A without Nonidet P40, and re-suspended in 40 μl of buffer B containing 25% (v/v) glycerol, 0.42 M NaCl, 1.5 mM MgCl2, 0.2 mM EDTA, 0.5 mM dithiothreitol, and Complete™ protease inhibitor cocktail (Roche) in 20 mM HEPES, pH7.9 for 30 min on ice. The lysates were centrifuged at 15,000×g for 15 min and the supernatants containing the nuclear proteins were stored at −70° C. until use. Ten μg of nuclear proteins was used for the electrophoretic mobility shift assay for detection of AP-1, NFκB, and C/EBP DNA binding activities. DNA-protein binding reactions were carried out at room temperature for 20 min in 10 mM Trizma base (pH 7.9), 50 mM NaCl, 5 mM MgCl2, 1 mM EDTA, 1 mM dithiothreitol, 1 μg poly (dl-dC), 5% (v/v) glycerol, and approximately 0.3 pmol of NFκB (Santa Cruz Biotech) labeled with DIG-ddUTP using terminal deoxynucleotidyl transferase (Roche). Protein-DNA complexes were resolved from protein-free DNA in 5% polyacrylamide gels at room temperature in 50 mM Tris, pH 8.3, 0.38 M glycine, and 2 mM EDTA, and electroblotted onto positively charged nylon membranes. The chemiluminescence detection method for DIG-labeled probes is identical to the method described for the non-isotopic northern blot analysis in the preceding.
# Transient Transfections and Reporter Gene Assay. 3×10^5 cells/well were cultured in 6-well plates for one day before the transfection. Transfection was performed with plasmid concentration constant (2.5 μg/transfection) and 8 μl of Fugene transfection reagent (Roche Molecular Biochemicals). One day after transfection, the cells were placed in serum free media for overnight. Following appropriate treatment, the cells were washed with phosphate buffered saline (PBS), scrapped, and then resuspended with 100 μl of lysis buffer (40 mM of Tricine pH 7.8, 50 mM of NaCl, 2 mM of EDTA, 1 mM of MgSO4, 5 mM of dithiothreitol, and 1% of Triton X-100). After incubation in room temperature for 15 min with occasional vortexing, the samples were centrifuged. […]
structure (smiles),measurement,setting,value
"CCCCCCCCCC(=O)NC(CN1CCOCC1)C(O)c1ccccc1.Cl [D-PDMP, D-threo-1-Phenyl-2-decanoylamino-3-morpholino-1-propanol HCl]",production of nitric oxide (NO),"iNOS; LPS/IFN 1 μg/ml, 10 U/ml, 24 hrs",dose dependent decrease
same,mRNA and protein levels of iNOS,"iNOS; LPS/IFN, mRNA 6 hrs, protein 24 hrs",dose dependent decrease
same,solubility in water,[1],soluble
same,increase in LacCer biosynthesis following LPS/IFN stimulation,[2],inhibited this increase
same,LPS/IFN induced luciferase activity (κB-repeat luciferase),NF-κB; D-PDMP 0.5 hr before LPS/IFN,abolished
same,phosphorylation of IκB,NF-κB; in the presence of D-PDMP,Decreased
same,NF-κB DNA binding activity (electrophoresis mobility shift assay),"NF-κB; increasing doses of D-PDMP, LPS/IFN 45 minutes",inhibited
